Data: PubChem BioAssay AID330 (DTP/NCI, 2004)
Where “and” joins values, the source holds several entries; their conditions need not be identical. Identical values can stand only once. Toxic doses and inconclusive results are not listed. The calls were made as follows: active = survival T/C of 150% or more; inactive = T/C below 125% in these data.

Tested on: P388 leukemia ip, CD2F1 mice, survival T/C
Experiment: NCI In Vivo Anticancer Drug Screen. Data for tumor model P388 Leukemia (intraperitoneal) in CD2F1 (CDF1) mice
Conditions: endpoint: median survival time, higher = longer survival
Method in brief: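 Mice carrying the transplanted tumor received test compound or vehicle. Survival was recorded in each group, and the value is the treated-group measurement divided by that of the vehicle-treated control group.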

[1] = dose: 50.0 mg/kg/injection, schedule: Q01DX005 (ip), vehicle: Klucel (hydroxypropylcellulose) (HPC)
[2] = dose: 100.0 mg/kg/injection, schedule: Q04DX002 (ip), vehicle: saline with Tween-80
[3] = dose: 200.0 mg/kg/injection, schedule: Q04DX002 (ip), vehicle: saline with Tween-80
[4] = dose: 400.0 mg/kg/injection, schedule: Q04DX002 (ip), vehicle: saline with Tween-80
[5] = dose: 50.0 mg/kg/injection, schedule: Q01DX009 (ip), vehicle: saline
[6] = dose: 100.0 mg/kg/injection, schedule: Q01DX009 (ip), vehicle: saline
[7] = dose: 200.0 mg/kg/injection, schedule: Q01DX009 (ip), vehicle: saline
[8] = dose: 60.0 mg/kg/injection, schedule: Q01DX005 (ip), vehicle: saline with Tween-80
[9] = dose: 120.0 mg/kg/injection, schedule: Q01DX005 (ip), vehicle: saline with Tween-80
[10] = dose: 240.0 mg/kg/injection, schedule: Q01DX005 (ip), vehicle: saline with Tween-80
[11] = dose: 50.0 mg/kg/injection, schedule: Q01DX005 (ip), vehicle: saline with Tween-80
[12] = dose: 100.0 mg/kg/injection, schedule: Q01DX005 (ip), vehicle: saline with Tween-80
[13] = dose: 200.0 mg/kg/injection, schedule: Q01DX005 (ip), vehicle: saline with Tween-80
[14] = dose: 3.12 mg/kg/injection, schedule: Q01DX009 (ip), vehicle: saline
[15] = dose: 6.25 mg/kg/injection, schedule: Q01DX009 (ip), vehicle: saline
[16] = dose: 12.5 mg/kg/injection, schedule: Q01DX009 (ip), vehicle: saline
[17] = dose: 200.0 mg/kg/injection, schedule: Q01DX009 (ip), vehicle: Klucel (hydroxypropylcellulose) (HPC)
[18] = dose: 50.0 mg/kg/injection, schedule: Q01DX009 (ip), vehicle: saline with Tween-80
[19] = dose: 100.0 mg/kg/injection, schedule: Q01DX009 (ip), vehicle: saline with Tween-80
[20] = dose: 200.0 mg/kg/injection, schedule: Q01DX009 (ip), vehicle: saline with Tween-80

Measured: T/C

O=C1c2ccccc2C(=O)c2c1nc1sccn21
inactive: dose: 3.12 mg/kg/injection, schedule: Q01DX005 (ip), vehicle: Klucel (hydroxypropylcellulose) (HPC) 104 % of control | dose: 6.25 mg/kg/injection, schedule: Q01DX005 (ip), vehicle: Klucel (hydroxypropylcellulose) (HPC) 108 % of control | dose: 12.5 mg/kg/injection, schedule: Q01DX005 (ip), vehicle: Klucel (hydroxypropylcellulose) (HPC) 102 % of control and 104 % of control | [1] 105 % of control

C(=N\Nc1nnc2c(n1)[nH]c1ccccc12)/c1ccccc1
inactive: [2] 89 % of control | [3] 90 % of control | [4] 98 % of control

O=C(CNSc1ccc([N+](=O)[O-])cc1[N+](=O)[O-])OCc1ccccc1
inactive: dose: 50.0 mg/kg/injection, schedule: Q01DX005 (ip), vehicle: saline + Tween-80 + alcohol 100 % of control | dose: 100.0 mg/kg/injection, schedule: Q01DX005 (ip), vehicle: saline + Tween-80 + alcohol 106 % of control | dose: 200.0 mg/kg/injection, schedule: Q01DX005 (ip), vehicle: saline + Tween-80 + alcohol 97 % of control

Cn1nnc2c1CN=CN2
inactive: [5] 117 % of control | [6] 103 % of control | [7] 112 % of control

C=C(C)C(=O)OCCn1c(=O)c2c(ncn2C)n(C)c1=O
inactive: [8] 96 % of control | [9] 101 % of control | [10] 92 % of control

COc1ccccc1[B-]12OCC[N+]1(CNC(=O)c1ccccc1O)CCO2 (stereo not drawn)
inactive: [1] 102 % of control | dose: 100.0 mg/kg/injection, schedule: Q01DX005 (ip), vehicle: Klucel (hydroxypropylcellulose) (HPC) 103 % of control | dose: 200.0 mg/kg/injection, schedule: Q01DX005 (ip), vehicle: Klucel (hydroxypropylcellulose) (HPC) 103 % of control

O=C(O)CNC(=O)C1(N2C(=O)c3ccccc3C2=O)CCCC1
inactive: [11] 99 % of control | [12] 101 % of control | [13] 97 % of control

C=C(C)c1cc2cc(C(C)=O)ccc2o1
inactive: dose: 2.25 mg/kg/injection, schedule: Q01DX009 (ip), vehicle: Klucel (hydroxypropylcellulose) (HPC) 108 % of control | dose: 4.5 mg/kg/injection, schedule: Q01DX009 (ip), vehicle: Klucel (hydroxypropylcellulose) (HPC) 115 % of control | dose: 9.0 mg/kg/injection, schedule: Q01DX009 (ip), vehicle: Klucel (hydroxypropylcellulose) (HPC) 97 % of control | dose: 18.0 mg/kg/injection, schedule: Q01DX009 (ip), vehicle: Klucel (hydroxypropylcellulose) (HPC) 115 % of control | dose: 36.0 mg/kg/injection, schedule: Q01DX009 (ip), vehicle: Klucel (hydroxypropylcellulose) (HPC) 113 % of control

CCCCCCCCCC[N+]1(CC)CCCCC1
inactive: [14] 119 % of control | [15] 121 % of control | [16] 105 % of control

COc1cc2c(c(OC)c1OC)-c1ccc(SC)c(=O)cc1[C@@H](NC(=O)C(F)(F)F)CC2
inactive: dose: 0.08 mg/kg/injection, schedule: Q01DX009 (ip), vehicle: Klucel (hydroxypropylcellulose) (HPC) 110 % of control and 117 % of control | dose: 0.16 mg/kg/injection, schedule: Q01DX009 (ip), vehicle: Klucel (hydroxypropylcellulose) (HPC) 120 % of control and 124 % of control

C=CC(C)(C)C(O)C=C(C)C (stereo not drawn)
inactive: [2] 99 % of control | [3] 100 % of control | [4] 101 % of control

CC1=C(CC/C(C)=C/CCC2=CCC(C3=CC(=O)OC3O)OC2O)C(C)(C)CCC1 (stereo not drawn)
inactive: dose: 1.0 mg/kg/injection, schedule: Q01DX009 (ip), vehicle: Klucel (hydroxypropylcellulose) (HPC) 116 % of control | dose: 2.0 mg/kg/injection, schedule: Q01DX009 (ip), vehicle: Klucel (hydroxypropylcellulose) (HPC) 111 % of control | dose: 4.0 mg/kg/injection, schedule: Q01DX009 (ip), vehicle: Klucel (hydroxypropylcellulose) (HPC) 117 % of control | dose: 8.0 mg/kg/injection, schedule: Q01DX009 (ip), vehicle: Klucel (hydroxypropylcellulose) (HPC) 100 % of control | dose: 16.0 mg/kg/injection, schedule: Q01DX009 (ip), vehicle: Klucel (hydroxypropylcellulose) (HPC) 117 % of control

NC(Cc1ccc(O)cc1)C(=O)N/N=C/c1ccccc1O (stereo not drawn)
inactive: [11] 92 % of control | [12] 90 % of control | [13] 113 % of control

NCCn1[nH]c(=O)c2cccnc2c1=O
inactive: [2] 100 % of control | [3] 95 % of control | [4] 101 % of control

CCOC(=O)N1Cc2cc3ccccc3nc2C1CC(=O)O (stereo not drawn)
inactive: [17] 95 % of control | dose: 400.0 mg/kg/injection, schedule: Q01DX009 (ip), vehicle: Klucel (hydroxypropylcellulose) (HPC) 104 % of control

COc1ccc(OC(=O)Nc2cc(Cl)c(OC)cc2OC)c(Cl)c1
inactive: dose: 50.0 mg/kg/injection, schedule: Q01DX009 (ip), vehicle: saline + alcohol 98 % of control | dose: 100.0 mg/kg/injection, schedule: Q01DX009 (ip), vehicle: saline + alcohol 105 % of control | dose: 200.0 mg/kg/injection, schedule: Q01DX009 (ip), vehicle: saline + alcohol 96 % of control

CC(N=c1ccccn1O)C(O)c1ccccc1 (stereo not drawn)
inactive: [5] 101 % of control | [6] 97 % of control | [7] 97 % of control

COC(=O)c1cc(-c2ccc([N+](=O)[O-])cc2)c2c(=O)n(-c3ccccc3)[nH]c2n1
inactive: [8] 94 % of control | [9] 87 % of control | [10] 88 % of control

CCOC(=O)c1c[nH]c2ccc(N(CCO)CCO)cc12
inactive: [11] 102 % of control | [12] 105 % of control | [13] 108 % of control

O=P(OCCN(CCOP(=O)(Oc1ccccc1)Oc1ccccc1)c1ccc2ccccc2c1)(Oc1ccccc1)Oc1ccccc1
inactive: [18] 94 % of control | [19] 86 % of control | [20] 96 % of control

CCCCCC[C@H]([C@H](C)O)n1cnc2c(N)ncnc21
inactive: dose: 1.56 mg/kg/injection, schedule: Q01DX009 (ip), vehicle: Klucel (hydroxypropylcellulose) (HPC) 100 % of control | dose: 3.12 mg/kg/injection, schedule: Q01DX009 (ip), vehicle: Klucel (hydroxypropylcellulose) (HPC) 100 % of control | dose: 4.0 mg/kg/injection, schedule: Q01DX005 (ip), vehicle: Klucel (hydroxypropylcellulose) (HPC) 100 % of control | dose: 6.25 mg/kg/injection, schedule: Q01DX009 (ip), vehicle: Klucel (hydroxypropylcellulose) (HPC) 98 % of control | dose: 8.0 mg/kg/injection, schedule: Q01DX005 (ip), vehicle: Klucel (hydroxypropylcellulose) (HPC) 102 % of control | dose: 12.5 mg/kg/injection, schedule: Q01DX009 (ip), vehicle: Klucel (hydroxypropylcellulose) (HPC) 105 % of control | dose: 16.0 mg/kg/injection, schedule: Q01DX005 (ip), vehicle: Klucel (hydroxypropylcellulose) (HPC) 100 % of control | dose: 25.0 mg/kg/injection, schedule: Q01DX009 (ip), vehicle: Klucel (hydroxypropylcellulose) (HPC) 105 % of control and 96 % of control | dose: 32.0 mg/kg/injection, schedule: Q01DX005 (ip), vehicle: Klucel (hydroxypropylcellulose) (HPC) 104 % of control | dose: 50.0 mg/kg/injection, schedule: Q01DX009 (ip), vehicle: Klucel (hydroxypropylcellulose) (HPC) 104 % of control and 96 % of control | dose: 64.0 mg/kg/injection, schedule: Q01DX005 (ip), vehicle: Klucel (hydroxypropylcellulose) (HPC) 100 % of control | dose: 100.0 mg/kg/injection, schedule: Q01DX009 (ip), vehicle: Klucel (hydroxypropylcellulose) (HPC) 98 % of control | [17] 98 % of control

CC(C)(CO)NC(=O)c1ccc(C(C)(C)C)cc1Br
inactive: dose: 100.0 mg/kg/injection, schedule: Q01DX001 (ip), vehicle: saline with Tween-80 99 % of control | dose: 200.0 mg/kg/injection, schedule: Q01DX001 (ip), vehicle: saline with Tween-80 99 % of control | dose: 400.0 mg/kg/injection, schedule: Q01DX001 (ip), vehicle: saline with Tween-80 100 % of control

CC1CC(C)(C)N=C(C2(c3ccccc3)CC2)O1 (stereo not drawn)
inactive: [18] 109 % of control | [19] 109 % of control | [20] 100 % of control

CCC1(C)C(=O)C(C)(CC)C1=O (stereo not drawn)
inactive: [8] 105 % of control | [9] 107 % of control | [10] 116 % of control

CCn1c2[n+](c3ccccc31)CCC2
inactive: [14] 114 % of control | [15] 113 % of control | [16] 114 % of control
